Measured values: ChEMBL document CHEMBL1152560, “Substituted 2-arylbenzothiazoles as kinase inhibitors: hit-to-lead optimization” (Bioorg Med Chem, 2009)

Columns and labels:
[1] = biological target: Hepatocyte growth factor receptor (Homo sapiens) (UniProt P08581); assay: Residual activity of MET at 0.1 uM by microplate scintillation counting
[2] = biological target: CDK8/Cyclin C (Homo sapiens) (UniProt P49336+P24863); assay: Residual activity of CDK8/Cyclin C at 0.1 uM by microplate scintillation counting; type: protein-complex assay
[3] = biological target: Receptor-interacting serine/threonine-protein kinase 2 (Homo sapiens) (UniProt O43353); assay: Residual activity of RIPK2 at 1 uM by microplate scintillation counting
Chain of Receptor-interacting serine/threonine-protein kinase 2 (Homo sapiens) (O43353 whole entry): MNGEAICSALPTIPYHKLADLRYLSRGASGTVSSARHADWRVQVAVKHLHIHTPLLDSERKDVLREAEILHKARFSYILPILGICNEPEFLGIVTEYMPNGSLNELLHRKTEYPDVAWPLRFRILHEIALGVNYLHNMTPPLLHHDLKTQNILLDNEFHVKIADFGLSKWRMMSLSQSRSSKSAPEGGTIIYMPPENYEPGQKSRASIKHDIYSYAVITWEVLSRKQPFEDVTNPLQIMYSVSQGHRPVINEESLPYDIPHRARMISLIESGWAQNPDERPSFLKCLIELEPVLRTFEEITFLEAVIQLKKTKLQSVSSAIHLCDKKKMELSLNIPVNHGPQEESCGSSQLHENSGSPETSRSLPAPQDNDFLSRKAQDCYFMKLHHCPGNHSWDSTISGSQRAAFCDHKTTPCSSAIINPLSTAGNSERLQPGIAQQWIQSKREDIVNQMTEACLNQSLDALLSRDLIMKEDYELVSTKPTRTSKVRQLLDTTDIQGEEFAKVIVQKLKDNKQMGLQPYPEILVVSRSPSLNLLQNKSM

[4] = biological target: Mitogen-activated protein kinase kinase kinase 8 (Homo sapiens) (UniProt P41279); assay: Residual activity of COT at 0.1 uM by microplate scintillation counting
Chain of Mitogen-activated protein kinase kinase kinase 8 (Homo sapiens) (P41279 whole entry): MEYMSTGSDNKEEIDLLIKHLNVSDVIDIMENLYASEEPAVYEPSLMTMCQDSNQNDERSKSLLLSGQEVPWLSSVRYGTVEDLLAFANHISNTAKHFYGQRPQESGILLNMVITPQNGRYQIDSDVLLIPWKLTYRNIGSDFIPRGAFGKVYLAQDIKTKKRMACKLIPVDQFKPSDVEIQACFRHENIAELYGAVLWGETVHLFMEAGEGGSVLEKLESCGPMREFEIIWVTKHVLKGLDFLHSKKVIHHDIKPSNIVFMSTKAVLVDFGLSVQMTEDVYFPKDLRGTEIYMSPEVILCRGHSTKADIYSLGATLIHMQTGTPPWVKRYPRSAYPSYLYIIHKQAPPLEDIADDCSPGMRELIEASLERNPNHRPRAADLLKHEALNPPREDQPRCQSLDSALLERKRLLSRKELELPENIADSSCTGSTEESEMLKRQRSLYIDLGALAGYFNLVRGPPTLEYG

[5] = biological target: Cyclin-dependent kinase 2/cyclin E1 (Homo sapiens) (UniProt P24864+P24941); assay: Residual activity of CDK2/Cyclin E at 10 uM by microplate scintillation counting; type: protein-complex assay
[6] = biological target: T1, Eukaryotic translation initiation factor 2-alpha kinase 3 (Homo sapiens) (UniProt Q9NZJ5); assay: Residual activity of EIF2AK3 at 1 uM by microplate scintillation counting
T1 sequence (whole entry): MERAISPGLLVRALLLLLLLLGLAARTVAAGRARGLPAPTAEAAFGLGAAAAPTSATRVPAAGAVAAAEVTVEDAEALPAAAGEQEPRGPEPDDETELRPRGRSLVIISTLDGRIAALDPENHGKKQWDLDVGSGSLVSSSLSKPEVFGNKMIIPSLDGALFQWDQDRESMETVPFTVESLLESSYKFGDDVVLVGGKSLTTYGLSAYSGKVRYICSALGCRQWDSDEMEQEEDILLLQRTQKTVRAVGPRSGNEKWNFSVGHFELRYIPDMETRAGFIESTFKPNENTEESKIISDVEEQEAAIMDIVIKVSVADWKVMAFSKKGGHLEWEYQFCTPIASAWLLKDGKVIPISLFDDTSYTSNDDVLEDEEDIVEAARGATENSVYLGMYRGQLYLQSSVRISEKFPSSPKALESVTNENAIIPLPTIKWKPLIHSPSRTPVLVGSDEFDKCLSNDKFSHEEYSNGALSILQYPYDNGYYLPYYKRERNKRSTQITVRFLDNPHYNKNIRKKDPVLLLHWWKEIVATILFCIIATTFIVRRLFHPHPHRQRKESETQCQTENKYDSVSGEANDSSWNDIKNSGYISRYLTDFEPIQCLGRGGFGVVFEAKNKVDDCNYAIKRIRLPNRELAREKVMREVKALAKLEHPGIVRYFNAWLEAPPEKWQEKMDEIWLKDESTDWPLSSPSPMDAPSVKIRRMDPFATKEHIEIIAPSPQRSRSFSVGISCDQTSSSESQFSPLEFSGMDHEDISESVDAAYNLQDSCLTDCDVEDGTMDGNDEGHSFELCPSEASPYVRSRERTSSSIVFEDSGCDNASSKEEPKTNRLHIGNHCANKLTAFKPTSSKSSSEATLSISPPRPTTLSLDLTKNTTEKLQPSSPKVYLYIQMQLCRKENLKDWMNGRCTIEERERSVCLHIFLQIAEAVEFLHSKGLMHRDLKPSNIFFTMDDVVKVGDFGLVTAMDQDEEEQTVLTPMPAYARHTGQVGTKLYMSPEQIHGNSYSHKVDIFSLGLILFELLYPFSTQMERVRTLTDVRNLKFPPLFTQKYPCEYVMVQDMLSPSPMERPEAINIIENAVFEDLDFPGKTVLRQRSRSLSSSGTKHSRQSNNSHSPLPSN

[7] = biological target: Proto-oncogene tyrosine-protein kinase receptor Ret (Homo sapiens) (UniProt P07949); assay: Residual activity of RET at 1 uM by microplate scintillation counting
[8] = biological target: T2, cAMP-dependent protein kinase catalytic subunit PRKX (Homo sapiens) (UniProt P51817); assay: Residual activity of PRKX at 1 uM by microplate scintillation counting
T2 sequence (whole entry): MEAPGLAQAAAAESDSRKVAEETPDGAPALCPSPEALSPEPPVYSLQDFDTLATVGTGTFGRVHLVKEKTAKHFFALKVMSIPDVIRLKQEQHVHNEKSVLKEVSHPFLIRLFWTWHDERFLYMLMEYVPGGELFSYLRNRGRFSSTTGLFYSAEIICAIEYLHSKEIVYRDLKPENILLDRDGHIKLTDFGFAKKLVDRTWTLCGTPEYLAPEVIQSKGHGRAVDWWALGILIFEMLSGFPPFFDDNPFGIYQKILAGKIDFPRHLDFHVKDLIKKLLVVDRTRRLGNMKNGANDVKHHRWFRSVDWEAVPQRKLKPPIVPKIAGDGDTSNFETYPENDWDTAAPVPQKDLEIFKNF

[9] = biological target: Vascular endothelial growth factor receptor 1 (Homo sapiens) (UniProt P17948); assay: Residual activity of VEGFR1 at 0.1 uM by microplate scintillation counting
Chain of Vascular endothelial growth factor receptor 1 (Homo sapiens) (P17948 whole entry): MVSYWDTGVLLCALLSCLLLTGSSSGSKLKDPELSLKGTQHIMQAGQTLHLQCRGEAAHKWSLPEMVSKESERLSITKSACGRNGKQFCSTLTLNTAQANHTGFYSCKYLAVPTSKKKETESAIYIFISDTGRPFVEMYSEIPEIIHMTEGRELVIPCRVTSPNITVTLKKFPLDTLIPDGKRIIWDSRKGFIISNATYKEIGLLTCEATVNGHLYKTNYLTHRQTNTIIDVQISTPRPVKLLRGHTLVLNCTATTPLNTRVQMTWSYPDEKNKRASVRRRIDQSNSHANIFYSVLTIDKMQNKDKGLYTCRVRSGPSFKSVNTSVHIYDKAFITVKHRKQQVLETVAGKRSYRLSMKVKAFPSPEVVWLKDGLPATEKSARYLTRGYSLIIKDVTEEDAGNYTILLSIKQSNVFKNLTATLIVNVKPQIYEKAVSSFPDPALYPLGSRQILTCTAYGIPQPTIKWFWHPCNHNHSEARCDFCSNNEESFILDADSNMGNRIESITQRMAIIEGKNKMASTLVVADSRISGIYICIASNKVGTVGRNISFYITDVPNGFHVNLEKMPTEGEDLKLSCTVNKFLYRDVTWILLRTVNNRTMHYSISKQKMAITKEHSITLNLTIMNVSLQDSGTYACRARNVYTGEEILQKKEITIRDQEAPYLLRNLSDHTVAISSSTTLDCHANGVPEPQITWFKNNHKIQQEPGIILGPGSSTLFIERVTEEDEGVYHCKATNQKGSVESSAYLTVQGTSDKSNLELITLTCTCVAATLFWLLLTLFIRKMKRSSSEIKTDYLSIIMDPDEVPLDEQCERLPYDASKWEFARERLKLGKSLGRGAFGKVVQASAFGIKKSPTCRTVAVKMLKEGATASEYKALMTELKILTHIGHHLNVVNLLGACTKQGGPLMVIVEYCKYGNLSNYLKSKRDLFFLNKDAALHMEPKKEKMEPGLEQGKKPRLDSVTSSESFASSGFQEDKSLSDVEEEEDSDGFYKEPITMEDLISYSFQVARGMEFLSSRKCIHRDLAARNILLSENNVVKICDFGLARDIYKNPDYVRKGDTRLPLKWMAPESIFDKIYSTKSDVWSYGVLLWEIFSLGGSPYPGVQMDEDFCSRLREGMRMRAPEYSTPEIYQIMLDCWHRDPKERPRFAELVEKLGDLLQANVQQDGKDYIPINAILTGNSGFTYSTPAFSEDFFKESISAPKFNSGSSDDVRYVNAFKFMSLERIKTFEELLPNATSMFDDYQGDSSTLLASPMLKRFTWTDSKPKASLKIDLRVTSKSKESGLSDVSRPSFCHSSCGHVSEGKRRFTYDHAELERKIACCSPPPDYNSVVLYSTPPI

[10] = biological target: Rho-associated protein kinase 2 (Homo sapiens) (UniProt O75116); assay: Residual activity of ROCK2 at 1 uM by microplate scintillation counting
Chain of Rho-associated protein kinase 2 (Homo sapiens) (O75116 whole entry, looked up): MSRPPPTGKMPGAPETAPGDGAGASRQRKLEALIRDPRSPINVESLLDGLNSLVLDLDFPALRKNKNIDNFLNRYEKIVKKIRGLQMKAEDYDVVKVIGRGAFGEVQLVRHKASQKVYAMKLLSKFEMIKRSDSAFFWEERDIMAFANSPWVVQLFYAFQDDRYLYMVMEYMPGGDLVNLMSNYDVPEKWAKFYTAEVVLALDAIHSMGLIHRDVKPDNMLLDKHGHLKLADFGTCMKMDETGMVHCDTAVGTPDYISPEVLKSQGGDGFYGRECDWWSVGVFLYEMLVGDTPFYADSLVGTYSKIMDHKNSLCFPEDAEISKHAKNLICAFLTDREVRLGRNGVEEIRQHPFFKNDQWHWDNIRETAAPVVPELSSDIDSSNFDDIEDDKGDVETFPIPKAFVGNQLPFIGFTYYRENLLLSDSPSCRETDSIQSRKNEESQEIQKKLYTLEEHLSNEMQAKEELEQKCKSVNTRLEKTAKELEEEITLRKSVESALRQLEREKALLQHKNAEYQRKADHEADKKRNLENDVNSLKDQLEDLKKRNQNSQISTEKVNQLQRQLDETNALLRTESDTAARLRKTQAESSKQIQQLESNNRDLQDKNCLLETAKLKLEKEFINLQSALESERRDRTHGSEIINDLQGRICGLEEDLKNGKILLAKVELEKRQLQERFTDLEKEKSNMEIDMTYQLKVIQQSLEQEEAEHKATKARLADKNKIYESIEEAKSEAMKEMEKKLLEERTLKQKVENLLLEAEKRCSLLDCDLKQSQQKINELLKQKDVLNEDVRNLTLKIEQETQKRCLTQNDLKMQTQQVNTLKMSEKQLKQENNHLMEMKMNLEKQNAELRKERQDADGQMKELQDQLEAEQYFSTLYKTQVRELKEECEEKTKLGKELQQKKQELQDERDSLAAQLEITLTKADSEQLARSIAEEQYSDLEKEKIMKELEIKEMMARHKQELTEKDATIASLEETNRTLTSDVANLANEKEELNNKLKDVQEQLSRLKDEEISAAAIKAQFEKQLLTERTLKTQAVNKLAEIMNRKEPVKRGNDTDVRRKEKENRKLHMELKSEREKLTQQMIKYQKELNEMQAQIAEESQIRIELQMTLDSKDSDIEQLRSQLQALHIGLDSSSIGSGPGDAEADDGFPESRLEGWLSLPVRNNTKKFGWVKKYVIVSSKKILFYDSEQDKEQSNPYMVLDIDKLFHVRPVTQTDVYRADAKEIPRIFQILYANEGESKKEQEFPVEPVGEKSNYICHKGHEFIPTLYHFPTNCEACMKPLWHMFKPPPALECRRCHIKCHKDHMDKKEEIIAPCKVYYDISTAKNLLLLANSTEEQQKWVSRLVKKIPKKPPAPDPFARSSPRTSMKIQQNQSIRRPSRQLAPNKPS

[11] = biological target: T3, Aurora kinase A (Homo sapiens) (UniProt O14965); assay: Residual activity of Aurora-A at 1 uM by microplate scintillation counting
T3 sequence (whole entry): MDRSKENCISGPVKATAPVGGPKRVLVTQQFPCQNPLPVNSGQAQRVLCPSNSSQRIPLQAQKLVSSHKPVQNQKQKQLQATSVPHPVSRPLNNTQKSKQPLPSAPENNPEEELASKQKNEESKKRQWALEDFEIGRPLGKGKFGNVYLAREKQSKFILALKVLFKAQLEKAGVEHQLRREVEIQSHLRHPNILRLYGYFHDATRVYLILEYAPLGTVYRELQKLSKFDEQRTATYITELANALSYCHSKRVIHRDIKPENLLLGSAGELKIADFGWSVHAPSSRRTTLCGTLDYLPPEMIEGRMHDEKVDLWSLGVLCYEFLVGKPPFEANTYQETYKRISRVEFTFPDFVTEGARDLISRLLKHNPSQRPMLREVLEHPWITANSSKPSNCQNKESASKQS

Chain of Hepatocyte growth factor receptor (Homo sapiens) (P08581 whole entry): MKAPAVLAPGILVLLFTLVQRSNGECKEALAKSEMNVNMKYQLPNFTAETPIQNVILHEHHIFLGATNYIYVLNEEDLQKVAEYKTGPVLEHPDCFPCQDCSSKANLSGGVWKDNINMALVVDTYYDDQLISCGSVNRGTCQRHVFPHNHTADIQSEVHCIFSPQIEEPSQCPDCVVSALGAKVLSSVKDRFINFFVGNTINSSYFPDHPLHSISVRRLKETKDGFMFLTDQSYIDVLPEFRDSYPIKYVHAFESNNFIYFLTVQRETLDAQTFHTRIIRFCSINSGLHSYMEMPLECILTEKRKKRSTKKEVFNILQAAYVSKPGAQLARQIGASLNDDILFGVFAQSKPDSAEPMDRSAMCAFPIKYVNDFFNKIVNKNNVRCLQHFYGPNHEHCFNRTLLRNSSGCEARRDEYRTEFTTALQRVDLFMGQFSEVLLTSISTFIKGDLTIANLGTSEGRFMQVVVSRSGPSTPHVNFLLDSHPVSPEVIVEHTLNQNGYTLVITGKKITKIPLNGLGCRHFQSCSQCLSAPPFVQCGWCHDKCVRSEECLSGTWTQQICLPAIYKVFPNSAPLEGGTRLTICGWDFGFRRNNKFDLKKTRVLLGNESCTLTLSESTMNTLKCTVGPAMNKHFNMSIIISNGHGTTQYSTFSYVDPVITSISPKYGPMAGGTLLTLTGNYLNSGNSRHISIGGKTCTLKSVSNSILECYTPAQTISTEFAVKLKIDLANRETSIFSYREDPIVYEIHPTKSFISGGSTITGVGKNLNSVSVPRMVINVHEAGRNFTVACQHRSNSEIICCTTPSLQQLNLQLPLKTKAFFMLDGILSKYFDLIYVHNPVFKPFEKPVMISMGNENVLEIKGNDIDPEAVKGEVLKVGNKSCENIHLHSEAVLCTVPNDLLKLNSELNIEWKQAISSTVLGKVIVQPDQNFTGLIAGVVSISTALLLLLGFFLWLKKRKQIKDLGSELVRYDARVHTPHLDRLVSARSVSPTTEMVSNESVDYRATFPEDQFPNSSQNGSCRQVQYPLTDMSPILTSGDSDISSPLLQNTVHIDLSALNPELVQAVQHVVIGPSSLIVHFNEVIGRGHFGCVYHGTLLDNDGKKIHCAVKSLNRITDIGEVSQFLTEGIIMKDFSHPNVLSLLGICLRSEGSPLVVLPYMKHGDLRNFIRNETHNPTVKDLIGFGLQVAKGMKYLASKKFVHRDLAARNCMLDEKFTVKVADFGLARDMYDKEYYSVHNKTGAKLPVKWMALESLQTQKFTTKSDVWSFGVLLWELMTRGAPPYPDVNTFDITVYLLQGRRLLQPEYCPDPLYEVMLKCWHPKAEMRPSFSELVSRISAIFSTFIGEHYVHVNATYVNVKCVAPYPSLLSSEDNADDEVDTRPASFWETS

| SMILES | residual activity [1] [%] | residual activity [2] [%] | residual activity [3] [%] | residual activity [4] [%] | residual activity [5] [%] | residual activity [6] [%] | residual activity [7] [%] | residual activity [8] [%] | residual activity [9] [%] | residual activity [10] [%] | residual activity [11] [%] |
| --- | --- | --- | --- | --- | --- | --- | --- | --- | --- | --- | --- |
| COc1cc2c(Oc3ccc(-c4nc5ccccc5s4)cc3)ncnc2cc1OCCCN1CCN(C)CC1 | 83 | 87 | 25 | 101 | 186 | 100 | 68 | 89 | 93 | 101 | 22 |
| COc1cc2c(Oc3ccc(-c4nc5ccccc5s4)cc3)ncnc2cc1OCCCN1CCCC1 | 106 | 94 | 29 | 73 | 116 | 102 | 81 | 86 | 96 | 93 | 25 |
| COc1cc2c(Oc3ccc(-c4nc5ccccc5s4)cc3F)ncnc2cc1OCCCN1CCN(C)CC1 | 81 | 79 | 29 | 78 | 194 | 90 | 58 | 92 | 95 | 93 | 28 |
